Values of other authors in patent US12508229B2, “Method for preparing stable peptide formulations” (Amphastar Pharmaceuticals, Inc., priority 2019, dated 2025).

Compound	aqueous solubility (in words)	aqueous solubility
OC[C@H]1O[C@@H]2O[C@H]3[C@H](O)[C@@H](O)[C@@H](O[C@H]4[C@H](O)[C@@H](O)[C@@H](O[C@H]5[C@H](O)[C@@H](O)[C@@H](O[C@H]6[C@H](O)[C@@H](O)[C@@H](O[C@H]7[C@H](O)[C@@H](O)[C@@H](O[C@H]8[C@H](O)[C@@H](O)[C@@H](O[C@H]9[C@H](O)[C@@H](O)[C@@H](O[C@H]1[C@H](O)[C@H]2O)O[C@@H]9CO)O[C@@H]8CO)O[C@@H]7CO)O[C@@H]6CO)O[C@@H]5CO)O[C@@H]4CO)O[C@@H]3CO [γ-cyclodextrin]	freely soluble in water	–
OC[C@H]1O[C@@H]2O[C@H]3[C@H](O)[C@@H](O)[C@@H](O[C@H]4[C@H](O)[C@@H](O)[C@@H](O[C@H]5[C@H](O)[C@@H](O)[C@@H](O[C@H]6[C@H](O)[C@@H](O)[C@@H](O[C@H]7[C@H](O)[C@@H](O)[C@@H](O[C@H]1[C@H](O)[C@H]2O)O[C@@H]7CO)O[C@@H]6CO)O[C@@H]5CO)O[C@@H]4CO)O[C@@H]3CO [α-CD, α-cyclodextrin]	–	about 5 wt %
hydroxypropyl β-cyclodextrin [HP-ß-CD]	higher aqueous solubility than α-CD	–
